# What was measured:
# Design in all cases: species or system AML cell lines (8); Primary HTS, single concentration about 10 uM, Cell Titer Glo viability; log10 luminescence, per cent inhibition relative to cycloheximide control
# Conditions in all cases: 72 h, relative to cycloheximide control, log10 luminescence; inhibitor
# MV4-11 = test system: MV4-11
# ML-2 = test system: ML-2
# CMK = test system: CMK
# CHRF288-11 = test system: CHRF288-11
# CMS = test system: CMS
# MOLM-13 = test system: MOLM-13
# U937 = test system: U937
# M07e = test system: M07e
SMILES,MV4-11 %inh (MV4-11),ML-2 %inh (ML-2),CMK %inh (CMK),CHRF288-11 %inh (CHRF288-11),CMS %inh (CMS),MOLM-13 %inh (MOLM-13),U937 %inh (U937),M07e %inh (M07e)
O=C1NC(=NCc2ccccn2)S/C1=C\c1ccc2ncccc2c1 [SJ000581006-1],1.986%,-0.04041%,2.326%,-1.509%,-0.1401%,6.642%,2.876%,3.262%
Cn1cc(C2=C(c3c4n(c5ccccc35)CCCCC4)C(=O)NC2=O)c2ccccc21 [SJ000581007-1],-1.05%,-3.106%,2.966%,-2.847%,-2.233%,-0.4157%,-0.6469%,0.1866%
Cn1cc(C2=C(c3cccc(NCC(O)CO)c3)C(=O)NC2=O)c2cc(Cl)ccc21 (centres unmarked) [SJ000581009-1],70.02%,10.75%,105.4%,28.92%,98.55%,37.38%,8.397%,19.12%
Cn1cc(C2=C(c3cn(CCCCCO)c4ccccc34)C(=O)NC2=O)c2ccccc21 [SJ000581010-1],-1.111%,-1.548%,27.55%,17.96%,1.022%,6.709%,-0.3264%,1.341%
Cn1cc(C2=C(c3cn(CCCN=C(N)N)c4ccccc34)C(=O)NC2=O)c2ccccc21 [SJ000581011-1],6.352%,1.035%,-5.09%,6.037%,-3.925%,3.172%,-0.6406%,-0.6273%
Cc1cc(C)c2c(n1)sc1c(N)ncnc12 [SJ000581012-1],-4.498%,-0.0326%,-2.956%,1.655%,2.019%,-1.383%,3.328%,-1.463%
COc1cc[nH]c1/C=C1\C(=O)Nc2ccc(F)c(C#CC3(O)CCNCC3)c21 [SJ000581013-1],81.96%,57.56%,93.46%,71.86%,92.23%,105.4%,80.6%,109.1%
COc1cccc(C(=O)c2sc(Nc3ccc(N4CCN(C(C)C)CC4)cc3)nc2N)c1 [SJ000581014-1],15.32%,8.496%,33.11%,15.68%,7.49%,103.8%,25.4%,8.945%
O=C1NC(=NCCc2cccs2)S/C1=C\c1ccc2ncccc2c1 [SJ000581015-1],1.469%,1.872%,2.413%,-3.354%,2.886%,1.226%,4.783%,0.2412%
Cn1cc(C2=C(N3CCOCC3)C(=O)NC2=O)c2ccccc21 [SJ000581016-1],-3.16%,1.058%,-3.99%,-0.4853%,2.558%,-0.4077%,-0.03629%,-1.546%
Cn1cc(C2=C(c3c4n(c5ccccc35)CCN(C(N)=S)C4)C(=O)NC2=O)c2ccccc21 [SJ000581017-1],52.04%,14.21%,110.3%,61.39%,66.21%,83.86%,15.09%,14.07%
Nc1c(C(=O)c2ccc(CCCN3CCOCC3)cc2)cnn1-c1ccc(F)cc1 [SJ000581018-1],0.41%,1.663%,0.7543%,6.032%,2.2%,3.662%,1.825%,0.8427%
O=C1NC(=N[C@@H](CO)Cc2ccccc2)S/C1=C\c1ccc2ncccc2c1 [SJ000581019-1],35.98%,8.345%,99.34%,42.52%,8.828%,62.37%,18.33%,15.21%
O=C1NC(=N[C@H](CO)Cc2ccccc2)S/C1=C\c1ccc2ncccc2c1 [SJ000581019-2],1.969%,1.703%,5.29%,7.52%,2.2%,1.796%,7.541%,7.526%
Nc1c(C(=O)c2cccc(OC[C@H](O)CO)c2)cnn1-c1ccc(F)cc1 [SJ000581020-1],0.9707%,2.034%,3.324%,2.337%,0.9092%,0.004587%,0.3347%,2.292%
COc1ccc(F)cc1C(=O)c1cnc(NC2CCN(S(C)(=O)=O)CC2)nc1N [SJ000581021-1],23.41%,16.42%,28.45%,14.05%,25.29%,27.57%,26.91%,26.32%
Cn1cc(C2=C(c3c4n(c5ccccc35)CCC(CN)CC4)C(=O)NC2=O)c2ccccc21 (centres unmarked) [SJ000581022-1],5.378%,3.751%,2.783%,0.7803%,0.653%,2.979%,3.425%,8.854%
CS(=O)(=O)CCn1c(=O)c(Oc2ccc(F)cc2F)cc2cnc(NC3CCOCC3)nc21 [SJ000581023-1],1.997%,0.4592%,0.4611%,8.185%,-0.4321%,-0.00779%,-0.5257%,1.483%
Cn1c(=O)c(Oc2ccc(F)cc2F)cc2cnc(NC(CO)CO)nc21 [SJ000581024-1],1.357%,0.9662%,-1.172%,-0.0002567%,-1.976%,0.3413%,3.277%,1.393%
